Data on two molecules can be found in US8481494B2, “Compounds for the treatment of diseases related to protein misfolding” (priority 2009, dated 2013).

One data set has as its target T1, Aβ(1-42) (Homo sapiens, UniProt P05067).
T1 construct: Aβ(1-42)-peptide (Bachem, Bubendorf, Germany) was prepared in HFIP; purchased Bachem, Bubendorf
Put plainly: ThT kinetics of Aβ aggregation. The following applies: in words. Type of data set: biochemical. The protocol:
The influence of the new β-sheet ligands, based on the aminopyrazole-trimer, on the Aβ self-assembly process was first studied kinetically. Reference curves were obtained independently for both Aβ (1-40) and Aβ (1-42). In a typical experiment, one third (⅓) equivalent of thioflavine T was added to a solution of monomeric Aβ in PBS buffer, prepared in HFIP. The increase in ThT fluorescence was monitored over time, as a measure of the total amount of accumulating aggregates. […] Both peptides reached a plateau after ˜3 days, which was set as standard time period for all consecutive aggregation assays.
Care was taken to eliminate fluorescence changes induced by any other events than the aggregation process; thus each ligand was separately shown to be non-fluorescent and not to alter Tht fluorescence in mixtures. Controls with pure Aβ were identical in peptide concentration as well as buffer and solvent composition. […] Aβ (1-42): Much more impressive is the inhibitory influence of the trimeric ligands on the aggregation kinetics of the full-length Aβ (1-42). […]
Then, a mixture of 9.5 μL ThT (62.7 μM stock solution), 6 μL PBS and 38.1 μL water (bidest.) was pipetted. […] Sixty μL of aggregation mixtures were pipetted in a 384-well plate and the fluorescence intensity (exc. at 446 nm, em. at 490 nm) was measured every hour at 37° C. […]

For another data set, the target named is T2, Oregon-Green-labeled Aβ (Homo sapiens, UniProt P05067).
T2 construct: aggregation mixtures of Aβ(1-42)/Aβ42-OG (17.5 nM/3.5 μM) in 10 mM NaPi, pH 7.4
Put plainly: Sedimentation analysis (analytical ultracentrifugation) of Aβ with ligand. In kind it is binding. As to the method:
(§1) In a standard FCS experiment a 5 nM Oregon-Green-labeled Aβ solution was prepared in PBS buffer with ˜3% DMSO. […] This is not surprising, because it comprises a flat arrangement of unpolar aromatics adorned with polar groups for extensive hydrogen bonding. Finally, TEM pictures were obtained from mature Aβ fibrils ([…]) as well as globular particles (3-30 nm) grown in the absence of aminopyrazole ligands.
FIG. 6A to 6F show the results of sedimentation velocity centrifugation: s-value-distributions of Aβ samples in the presence of Trimer-OH (FIG. 6A, FIG. 6B, FIG. 6C) vs. Trim-TEG-OEt (FIG. 6D, FIG. 6E, FIG. 6F). […] FIG. 6B, FIG. 6E: s-value distributions of the control experiments as determined by 2D-SA and Monte Carlo analysis. FIG. 6C, FIG. 6F: s-value distributions of experiments with 200 μM Trimer derivative after 5 d of incubation as determined by 2D-SA and Monte Carlo analysis.
(§2) Sedimentation velocity centrifugation was performed in an XLA (BeckmanCoulter, Palo Alto, USA) equipped with absorption optics and a four hole titanium rotor. […] Radial scans were recorded at a resolution of 0.002 cm. Detection wavelength was chosen at 493 nm to observe endlabeled FITC or Oregon Green™ and to avoid background absorbance from the test compound.
Sedimentation data were analyzed with UltraScan 9.4 (http://www.ultrascan.uthscsa.edu). […]

Data set [1] in a line: Sedimentation of the pure ligand (self-association). As to conditions: ligand itself. In kind it is physicochemical. The protocol:
as §1
Such an arrangement may also result in far-reaching conformational effects, indicated already be widening of the upper U-turn; these are now proposed to destroy the existing β-sheet (FIG. 12). The high positive charge of all five lysine residues requires the use of PBS with its high ionic strength for sedimentation experiments. […] Admittedly, their structures are somewhat reminiscent of the amphiphilic hybrid peptides (e.g., KLVFF-EEEEE) presented in the nineties for aggregation prevention by surface tension increase. […]
as §2

Data set [2] is described as follows: Solubility of the unprotected aminopyrazole trimers (stock solutions). As to conditions: water (class a) or DMSO (class b).
Protocol: The ligands were dissolved in 100% DMSO as 4.95 mM stock solutions and were stored at −20° C.

Structures are written as SMILES. Converted amounts (≈) assume the structure as drawn.

T2 sequence (P05067 672-713 limits assumed): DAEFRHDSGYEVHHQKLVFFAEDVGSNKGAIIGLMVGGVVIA
T2 sequence (P05067 672-713 limits assumed): as above
T1 sequence (P05067 672-713 limits assumed): as above

For `COC(=O)C(CCCCN)NC(=O)c1cc(NC(=O)c2cc(NC(=O)c3cc([N+](=O)[O-])n[nH]3)n[nH]2)n[nH]1.O=C(O)C(F)(F)F` (centres unmarked) [Trimer-Lys-OMe], the “effect on Aβ aggregation kinetics” value at Aβ(1-42) is “accelerates Aβ aggregation”.
As usually defined, the solubility is the dissolved amount per volume that the medium holds. Higher therefore signals a readily soluble substance. For the molecule `O=C(O)c1cc(NC(=O)c2cc(NC(=O)c3cc([N+](=O)[O-])n[nH]3)n[nH]2)n[nH]1` [Trimer-OH, 3-(3-(3-Nitro-1H-pyrazole-5-carboxamido)-1H-pyrazole-5-carboxamido)-1H-pyrazole-5-carboxylic acid], at Oregon-Green-labeled Aβ (corresponding to decrease to 25 S), the “molecular weight reduction of Aβ aggregates” value was determined as 50%. Besides, the “sedimentation coefficient of Aβ complex with ligand” value at Oregon-Green-labeled Aβ (dose-dependent decrease, pure Aβ above 50 S) was determined as 25 S. Also, the “size of micelles formed by self-association of the ligand” value in data set [1] is approximately 10 S. This molecule gave a solubility in data set [2] of 200 to 4950 µM (≈ 75.1 to 1860 µg/mL).
